Data on 1 substance can be found in patent publication US20250381133A1, “ARTICLE IN THE FORM OF EDIBLE SHEET” (TECOZYME INC, priority 2020, published 2025).

In the test the test system is mouse tongue. The test is described as follows: In vivo biostability / mucoadhesiveness on mouse tongue. On the set-up: species or system ICR mice. The following applies: after 60 minutes, high salivary flow; FIG. 19. The method, then: Eight-week-old ICR mice were anesthetized with 100mg/kg of ketamine and 16.7 mg/kg of xylazine cocktail. 10 mg of the oral patch was applied to the tongue. 0.2 mg/kg of Pilocarpine was administered intraperitoneally to stimulate salivation. Tongue tissues were harvested at 30 and 60 minutes post-injection for SEM and fluorescence imaging.

As to “unencapsulated FITC-BSA: FITC-labeled bovine serum albumin, not loaded in a patch”, the “retention of FITC-BSA on the tongue surface” value is “completely washed away”.
